Results taken from patent publication US20140249196A1, “N-BENZYLBENZIMIDAZOLE MODULATORS OF PPARG” (priority 2011, published 2014).

Key:
[1] = target: T1, GST-PPARG-LBD (Homo sapiens, UniProt P37231); test: Lanthascreen PPARG competitive binding assay (Invitrogen); conditions: Table 3; for IC50: read-out: IC50 (nM) Lantha
T1 construct: A mixture of 5 nM GST-PPARG-LBD; purchased Invitrogen
T1 sequence (P37231 238-503 limits assumed): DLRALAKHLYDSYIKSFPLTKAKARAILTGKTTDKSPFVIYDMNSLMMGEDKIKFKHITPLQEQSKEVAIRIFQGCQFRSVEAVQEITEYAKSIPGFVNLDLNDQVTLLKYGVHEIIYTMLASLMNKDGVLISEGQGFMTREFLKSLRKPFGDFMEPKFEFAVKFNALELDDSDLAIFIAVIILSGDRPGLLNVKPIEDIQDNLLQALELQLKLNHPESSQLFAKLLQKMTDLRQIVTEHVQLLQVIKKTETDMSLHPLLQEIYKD
Experimental: Lanthascreen PPARG Competitive Binding Assay (Invitrogen)
The assay was performed according to manufacturer protocol. A mixture of 5 nM GST-PPARG-LBD, 5 nM Tb-GST-antibody, 5 nM Fluormone Pan-PPAR Green, and serial dilutions of the experimental compound, beginning at 10 μM downwards, was added to wells of black 384-well low-volume plates (Greiner) to a total volume of 18 μL. All dilutions were made in TR-FRET assay buffer C. DMSO at 2% final concentration was used as a no-ligand control. Experiment was performed in triplicate, and incubated for 2 hours in the dark prior to assay read in Perkin Elmer ViewLux ultra HTS microplate reader. FRET signal was measured by excitation at 340 nm and emission at 520 nm for fluorescein and 490 nm for terbium. Fold change over DMSO was calculated using GraphPad Prism Software (La Jolla, Calif.) by calculating 520 nm/490 nm ratio. Graphs were plotted as fold change of FRET signal for compound treatment over DMSO-only control.

[2] = target: T2, PPARG (Homo sapiens, UniProt P37231); test: Gal4 transactivation assay; assay type: cell-based; conditions: Table 3
T2 construct: own inference from the column head
T2 sequence (P37231 1-505): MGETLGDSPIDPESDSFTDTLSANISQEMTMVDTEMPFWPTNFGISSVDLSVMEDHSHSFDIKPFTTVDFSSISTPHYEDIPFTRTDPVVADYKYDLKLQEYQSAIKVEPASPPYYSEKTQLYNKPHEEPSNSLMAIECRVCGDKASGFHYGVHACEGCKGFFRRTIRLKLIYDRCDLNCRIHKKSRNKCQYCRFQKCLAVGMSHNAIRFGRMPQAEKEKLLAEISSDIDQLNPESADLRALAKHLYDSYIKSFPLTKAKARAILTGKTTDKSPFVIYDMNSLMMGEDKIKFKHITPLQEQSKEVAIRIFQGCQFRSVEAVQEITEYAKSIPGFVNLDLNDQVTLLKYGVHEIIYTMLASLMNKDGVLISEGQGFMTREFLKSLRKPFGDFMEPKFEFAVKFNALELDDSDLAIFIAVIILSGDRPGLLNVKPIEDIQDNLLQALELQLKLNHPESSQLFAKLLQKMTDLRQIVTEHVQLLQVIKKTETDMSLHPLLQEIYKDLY

[3] = system: PPARG; test: Cell-based transactivation assay (3xPPRE-luciferase reporter, COS-1 cells co-transfected with PPARG); design: species or system murine or human (not said which for the values)
Experimental: Cell-Based Transactivation Assay: PPRE is a DNA that contains a binding site for PPARG; thus PPRE is a PPAR response element, used herein as a promoter reporter. The binding site is a DR1 response element with the sequence [NT] repeated 3 times in tandem and then fused to a construct for luciferase. Thus, PPRE is the basis of the cell based transactivation assay described below. The plasmid DNA is co-transfected along with a plasmid for PPARG into COS-1 cells. After an overnight incubation, cells are treated with DMSO or compounds. […] Transfected cells were plated in white Perkin Elmer 384-well plates and incubated 4 hours. […] After 18 hour incubation, treated cells were developed with Brite Lite Plus (Perkin Elmer) and read in 384-well Luminescence Perkin Elmer EnVision Multilabel plate reader. Graphs were plotted in triplicate in GraphPad Prism Software as fold change of treated cells over DMSO control cells.

Compound	IC50 [1]	further results
C[C@H](NC(=O)c1ccc2c(c1)ncn2Cc1ccc(Cl)cc1)c1ccc(Br)cc1 [Cpd 16]	2380 nM	–
CCOCCNC(=O)c1ccc2c(c1)ncn2Cc1ccc(Cl)cc1 [Cpd 23]	3710 nM	–
Cc1nc2cc(C(=O)N[C@@H](C)c3cccc(Br)c3)ccc2n1Cc1cccc(O[C@H](C)C(=O)O)c1 [Cpd 21]	–	IC50 (nM) Lantha [1]: 1e+08 nM
O=C(NCC1CCC1)c1ccc2c(c1)ncn2Cc1ccc(Cl)cc1 [Cpd 29]	7950 nM	–
O=C(NCC1CC1)c1ccc2c(c1)ncn2Cc1ccc(Cl)cc1 [Cpd 20]	18300 nM	–
COCCCNC(=O)c1ccc2c(c1)ncn2Cc1ccc(Cl)cc1 [Cpd 22]	7330 nM	–
O=C(NCC[C@H]1CCO1)c1ccc2c(c1)ncn2Cc1ccc(Cl)cc1 [Cpd 26]	6770 nM	–
COc1ccc(C(=O)n2c(C)c(Cc3cccc(O[C@@H](C)C(=O)O)c3)c3cc(OC(F)(F)F)ccc32)cc1 [MRL24]	–	transactivation of the reporter, % of rosiglitazone response ([3]; relative to rosiglitazone): about 25%
COCCNC(=O)c1ccc2c(c1)ncn2Cc1ccc(Cl)cc1 [Cpd 24]	6360 nM	–
COC[C@H](C)NC(=O)c1ccc2c(c1)ncn2Cc1ccc(Cl)cc1 [Cpd 25]	5220 nM	–
CCCCNC(=O)c1ccc2c(c1)ncn2Cc1ccc(Cl)cc1 [Cpd 28]	1420 nM	–
CC(C)c1cccc([C@H](C)NC(=O)c2ccc3c(c2)ncn3[C@@H](C)c2ccc(Cl)cc2)c1 [Cpd 15]	2520 nM	–
CN(CCOc1ccc(CC2SC(=O)NC2=O)cc1)c1ccccn1 (stereo not drawn) [rosiglitazone]	–	activation of the PPRE reporter ([3]; over DMSO): about 5 fold
CC(C)c1cccc([C@H](C)NC(=O)c2ccc3c(c2)ncn3Cc2ccc(Cl)cc2)c1 [Cpd 17]	4400 nM	–
C[C@@H](CC1CCOCC1)NC(=O)c1ccc2c(c1)ncn2Cc1ccc(Cl)cc1 [Cpd 19]	2100 nM	–

Second part, led by results:

IC50 [1]	Compound	further results
237 nM	COC(=O)[C@@H](NC(=O)c1ccc2c(c1)ncn2Cc1ccc(Cl)cc1)c1ccccc1 [Cpd 43]	EC50 [2]: 752 nM; GL4 % act 1 μM [2]: 51.21%
11000 nM	CC(C)c1cccc([C@H](C)NC(=O)c2ccc3c(c2)ncn3[C@H](C)c2ccc(Cl)cc2)c1 [Cpd 41]	–
403 nM	CC[C@H](NC(=O)c1ccc2c(c1)ncn2Cc1ccc(Cl)cc1)c1ccccc1 [Cpd 52]	EC50 [2]: 99.3 nM; GL4 % act 1 μM [2]: 30.41%
2420 nM	Cc1nc2cc(C(=O)N[C@@H](C)c3cccc(C(C)C)c3)ccc2n1Cc1cccc(O[C@@H](C)C(=O)O)c1 [Cpd 33]	–
612 nM	COC[C@@H](NC(=O)c1ccc2c(c1)ncn2Cc1ccc(Cl)cc1)C(C)C [Cpd 39]	EC50 [2]: 442 nM; GL4 % act 1 μM [2]: 62.18%
2160 nM	COC(=O)[C@H](C)NC(=O)c1ccc2c(c1)ncn2Cc1ccc(Cl)cc1 [Cpd 38]	–
13700 nM	COCCOCc1ccc2c(c1)ncn2Cc1ccc(Cl)cc1 [Cpd 36]	–
921 nM	O=C(N[C@H](CO)c1ccccc1)c1ccc2c(c1)ncn2Cc1ccc(Cl)cc1 [Cpd 42]	–
2050 nM	CC(C)c1cccc([C@H](C)NC(=O)c2ccc3c(c2)ncn3Cc2ccc(Cl)nc2)c1 [Cpd 49]	–
1050 nM	CC[C@@H](NC(=O)c1ccc2c(c1)ncn2Cc1ccc(Cl)cc1)c1ccccc1 [Cpd 51]	EC50 [2]: 3910 nM; GL4 % act 1 μM [2]: 76.12%
42.3 nM	CC(C)CCC(C)NC(=O)c1ccc2c(c1)ncn2Cc1ccc(Cl)cc1 (stereo not drawn) [Cpd 30]	EC50 [2]: 636 nM; GL4 % act 1 μM [2]: 96.37%; GL4 % act 10 μM [2]: 109.37%
3250 nM	CC(C)[C@@H](CO)NC(=O)c1ccc2c(c1)ncn2Cc1ccc(Cl)cc1 [Cpd 40]	–
1260 nM	CC(C)CCC(C)NC(=O)c1ccc2c(c1)ncn2[C@H](C)c1ccc(Cl)cc1 (stereo partly drawn) [Cpd 48]	–
1090 nM	CC(C)CCNC(=O)c1ccc2c(c1)ncn2Cc1ccc(Cl)cc1 [Cpd 34]	–
24400 nM	C[C@@H](CO)NC(=O)c1ccc2c(c1)ncn2Cc1ccc(Cl)cc1 [Cpd 46]	–
2410 nM	CCCc1nc2cc(C(=O)N[C@@H](C)c3cccc(C(C)C)c3)ccc2n1Cc1cccc(O[C@@H](C)C(=O)O)c1 [Cpd 35]	–
162 nM	CC(C)c1cccc([C@@H](C)NC(=O)c2ccc3c(c2)ncn3Cc2ccc(Cl)cc2)c1 [Cpd 50]	EC50 [2]: 44.1 nM; GL4 % act 1 μM [2]: 54.52%
8400 nM	CC(C)CC(C)NC(=O)c1ccc2c(c1)ncn2[C@H](C)c1ccc(Cl)cc1 (stereo partly drawn) [Cpd 47]	–
31.8 nM	CC(C)CC(C)NC(=O)c1ccc2c(c1)ncn2Cc1ccc(Cl)cc1 (stereo not drawn) [Cpd 31]	EC50 [2]: 12200 nM; GL4 % act 1 μM [2]: 34.29%; GL4 % act 10 μM [2]: 68.66%
2030 nM	CCc1nc2cc(C(=O)N[C@@H](C)c3cccc(C(C)C)c3)ccc2n1Cc1cccc(O[C@@H](C)C(=O)O)c1 [Cpd 32]	–
